Reference: patent US9386767B2, “Derivatives of dillapiol and related monolignans and use thereof” (UNIVERSITY OF OTTAWA, priority 2011, dated 2016)
“And” between values parts separate entries of the source, which are not always exact repeats. Identical values can stand only once. Like-named read-outs stand apart in the source and are kept apart here.

Target: T1, CYP3A4 (BDGentest) (Homo sapiens, UniProt P08684)
T1 construct: purchased BDGentest
Test: New CYP3A4 bioassay with dibenzylfluorescein (DBF) substrate (Foster et al. 2011)
Assay type: biochemical
Conditions: for IC50: human microsomes; for % Activity relative to dillapiol = 1: new CYP3A4 bioassay, inhibition relative to dillapiol
Experimental: In the second set of experiments, new CYP3A4 enzyme inhibition assays were conducted with a designed set of analogs and newer method described by Foster et al. (J. Agric. Food Chem, 2011, 59(9):5159-5163). This assay using the substrate dibenzylfluorescein (DBF) is considered more representative of CYP3A4 activity as compared to the benzyloxyresorufin assay previously used (Budzinski et al., 2000, Phytomedicine, 7(4):273-282).
Aliquots (10 μL) of stock solutions of the undiluted products were screened for their ability to inhibit CYP3A4 (BDGentest) metabolism of the non-fluorescent dibenzylfluorescein (DBF) substrates to the fluorescent metabolite using an in vitro fluorometric microtiter plate assay (CytoFluor Series 4000 multi-well plate reader). Briefly, assays were performed with 10 μL of product in clear-bottom, opaque-welled microtiter plates (96 well, Corning Costar). Control and control blank wells contained 5% ethanol, and test and test blank wells contained the product. All wells tested contained distilled water, β-nicotinamide adenine dinucleotide phosphate, reduced form (NADPH, Sigma Chemicals), and the enzyme substrate DBF (final concentration of 1 μM/well), for a total reaction volume of 200 μL. Control and test wells also contained live isozyme, within human microsomes, in phosphate buffer solution (PBS; 0.5 M, pH 7.4), and control blank and test blank wells contained denatured isoenzyme in PBS. Fluorescence was measured at 485 nm excitation and 530 nm emission, with a gain of 50.

[1] = DBF substrate 1 μM, read-out: IC50 (converted)

T1 sequence (P08684 whole entry): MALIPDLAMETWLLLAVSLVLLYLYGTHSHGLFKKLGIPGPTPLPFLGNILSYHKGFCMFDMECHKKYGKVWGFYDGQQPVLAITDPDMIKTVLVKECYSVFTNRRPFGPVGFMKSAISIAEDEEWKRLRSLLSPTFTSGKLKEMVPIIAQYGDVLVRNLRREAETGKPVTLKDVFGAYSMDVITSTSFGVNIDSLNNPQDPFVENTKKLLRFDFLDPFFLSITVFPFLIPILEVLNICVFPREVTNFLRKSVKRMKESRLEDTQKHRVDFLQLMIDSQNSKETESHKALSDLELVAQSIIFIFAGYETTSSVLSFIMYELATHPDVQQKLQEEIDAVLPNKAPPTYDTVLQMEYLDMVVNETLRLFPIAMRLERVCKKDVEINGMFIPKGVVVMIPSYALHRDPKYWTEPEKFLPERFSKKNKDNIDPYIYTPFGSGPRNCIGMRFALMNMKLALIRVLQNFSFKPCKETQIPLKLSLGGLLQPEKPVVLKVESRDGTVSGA

COc1c(CCCOC(=O)c2ccc(Cl)cc2Cl)cc2c(c1OC)OCO2
IC50 [1]: 1.4 µM and 1.43 µM | % Activity relative to dillapiol = 1: 6.56

COc1c(CCCOC(=O)c2ccc3c(c2)OCO3)cc2c(c1OC)OCO2
IC50 [1]: 2.63 µM | % Activity relative to dillapiol = 1: 3.49

CCCCCC(=O)OCCCc1cc2c(c(OC)c1OC)OCO2
IC50 [1]: 3.25 µM | % Activity relative to dillapiol = 1: 2.82

COc1c(CCCOCc2ccccc2)cc2c(c1OC)OCO2
IC50 [1]: 6.66 µM | % Activity relative to dillapiol = 1: 1.38

COc1c(CCCOC(=O)CCCc2ccccc2)cc2c(c1OC)OCO2
IC50 [1]: 4.14 µM | % Activity relative to dillapiol = 1: 2.22

COc1c(CCCOCc2ccc(F)cc2)cc2c(c1OC)OCO2
IC50 [1]: 10.3 µM | % Activity relative to dillapiol = 1: 0.89

COc1c(CCCOC(=O)c2ccc(Cl)cc2)cc2c(c1OC)OCO2
IC50 [1]: 1.56 µM | % Activity relative to dillapiol = 1: 5.89

COc1c(CCCOC(=O)/C=C/c2ccccc2)cc2c(c1OC)OCO2
IC50 [1]: 2.38 µM | % Activity relative to dillapiol = 1: 3.86

C/C=C(\C)C(=O)OCCCc1cc2c(c(OC)c1OC)OCO2
IC50 [1]: 1.55 µM | % Activity relative to dillapiol = 1: 5.9

COc1c(CCCOC(C)=O)cc2c(c1OC)OCO2
IC50 [1]: 9.22 µM and 9.21 µM | % Activity relative to dillapiol = 1: 1

COc1c(CCCOC(=O)c2ccccc2Cl)cc2c(c1OC)OCO2
IC50 [1]: 5.27 µM | % Activity relative to dillapiol = 1: 1.75

COc1cc2c(cc1CCCOC(=O)/C=C/c1ccccc1)OCO2
IC50 [1]: 4.73 µM | % Activity relative to dillapiol = 1: 1.94

C=CCc1cc2c(cc1OCc1cc(OC)ccc1OC)OCO2
IC50 [1]: 2.15 µM | % Activity relative to dillapiol = 1: 4.27

C=CCc1cc2c(cc1OCc1ccccc1)OCO2
IC50 [1]: 1.44 µM and 1.43 µM | % Activity relative to dillapiol = 1: 6.37

CCCc1cc2c(cc1OC)OCO2
IC50 (IC50, DBF substrate 1 μM): > 26 µM

O=C(/C=C/c1ccccc1)OCCCc1cc2c(cc1OCc1ccccc1)OCO2
IC50 [1]: 8 µM and 7.92 µM | % Activity relative to dillapiol = 1: 1.125

COc1c(CCCOC(=O)c2ccc([N+](=O)[O-])cc2)cc2c(c1OC)OCO2
IC50 [1]: > 13 µM

COc1c(CCCOC(=O)C(C)(C)C)cc2c(c1OC)OCO2
IC50 [1]: 2.78 µM and 2.77 µM | % Activity relative to dillapiol = 1: 3.3

COc1c(CCCOC(=O)C2CCCCC2)cc2c(c1OC)OCO2
IC50 [1]: 1.9 µM | % Activity relative to dillapiol = 1: 4.83

OCCCc1cc2c(cc1OCc1ccccc1)OCO2
IC50 [1]: 3 µM | % Activity relative to dillapiol = 1: 3

COc1cc2c(cc1CCCO)OCO2
IC50 [1]: 4.05 µM and 4.04 µM | % Activity relative to dillapiol = 1: 2.25

COc1c(CCCOC(=O)Cc2ccccc2)cc2c(c1OC)OCO2
IC50 (IC50, DBF substrate 1 μM): 1.9 µM | % Activity relative to dillapiol = 1: 4.83

O=C(CCCC/C=C/c1ccc2c(c1)OCO2)OCCCO
IC50 [1]: 4.1 µM and 4.08 µM | % Activity relative to dillapiol = 1: 2.2

OCCCCc1ccc2c(c1)OCO2
IC50 [1]: > 26 µM

COc1c(CCCC(O)(c2ccccc2)c2ccccc2)cc2c(c1OC)OCO2
IC50 [1]: 1.06 µM | % Activity relative to dillapiol = 1: 8.7

COc1c(CC/C=C/C(=O)NC(C)C)cc2c(c1OC)OCO2
IC50 [1]: 2.1 µM | % Activity relative to dillapiol = 1: 4.37

C=CCc1cc2c(cc1OC)OCO2
IC50 (IC50, DBF substrate 1 μM): > 26 µM

COc1c(CCCC(c2ccccc2)c2ccccc2)cc2c(c1OC)OCO2
IC50 [1]: > 20 µM

O=C(O)CCCC/C=C/c1ccc2c(c1)OCO2
IC50 [1]: > 20.1 µM

COc1c(CCC(C)O)cc2c(c1OC)OCO2 (stereo not shown)
IC50 [1]: > 20 µM

COc1c(CCCCO)cc2c(c1OC)OCO2
IC50 [1]: 11.6 µM | % Activity relative to dillapiol = 1: 0.8

O=C(OCCCc1cc2c(cc1OCc1ccccc1)OCO2)c1ccccc1
IC50 [1]: 3.9 µM and 3.84 µM | % Activity relative to dillapiol = 1: 2.3

O=C(OCCCc1cc2c(cc1OCc1ccccc1)OCO2)c1ccc2c(c1)OCO2
IC50 [1]: 1.4 µM and 1.38 µM | % Activity relative to dillapiol = 1: 6.6

COc1c(CCCOC(=O)C(c2ccccc2)c2ccccc2)cc2c(c1OC)OCO2 [Compound 48]
CYP3A4 inhibition (in words): potent inhibitor

COc1ccc(OC)c(COc2cc3c(cc2CCCOC(=O)c2ccccc2)OCO3)c1 [Compound 50]
CYP3A4 inhibition (in words): strong CYP3A4 inhibitors
